Experimental data from US20110301079A1, “NEUROMEDIN U RECEPTOR AGONISTS AND USES THEREOF” (Instituto di Ricerche di Biologia Molecolare P. Angeletti …, priority 2007, published 2011).

Experiments:
human NMUR2 = target: T1, human NMUR2 (Homo sapiens, UniProt Q9GZQ4); experiment: FLIPR calcium mobilization assay, human NMUR2-expressing cell line; format: cell-based
T1 construct: expressed in transfected cells; host or cells: FLP-In CHO cells and HEK-293 FLP-In cells (pcDNA5)
Excerpt: (§1) Human, mouse or rat cDNAs encoding NMUR1 or NMUR2 (as described in Howard et al. Nature 406: 70-74 (2000) were subcloned in pcDNA5 (Invitrogen) and transfected into FLP-In CHO cells and HEK-293 FLP-In cells purchased from Invitrogen (Carlsbad, Calif.) using lipofectamine (Invitrogen). The Flp-In system allows integration and expression of a particular gene of interest at a specific genomic location utilizing the Flp recombinase from yeast. The transfected cells were selected by growth in medium containing 200 μg/mL hygromycin (Invitrogen). Populations were frozen at early passage numbers, and these stocks were used for further studies. Stable clones that expressed the mRNAs were identified functionally by FLIPR as well as by RT-PCR. […] Two different rodent NMUR1 cell lines were thus generated: one with the codon as predicted from the genomic databases and another cell line with an engineered methionine (ATG) as the start codon. The dog NMU receptors were also cloned from intestine RNA (NMUR1) and brain (NMUR2) and stable cell lines were generated as used for the human and rodent cell lines. […] To ensure high levels of expression in a heterologous system, a dog NMUR1 cell line was generated that contains an ATG as the start codon. Additionally, stable cell lines expressing the human receptors were generated in HEK-293/aeq 17 cells which stably express the aequorin gene under the CMV promoter. The human NMUR2 cDNA was cloned into pcDNA3.1 and human NMUR1 was subcloned into pIRES-puro (Clontech, Mountain View, Calif.), after transfection cells were selected in media containing G418 and either hygromycin (NMUR2) or puromycin (NMUR1).
(§2) The NMU receptors signal primarily through Gαq/11 proteins; therefore calcium mobilization assays can be utilized for functional activity.
(§3) Stable cell lines expressing human and or rodent NMUR1 or human NMUR2 receptors are plated at a density of 12,000 cells per well overnight on poly-lysine coated 384-well black-walled plates. The following day, the media is removed from the plates and the cells were subsequently loaded with Fluo-3 (Molecular Probes), a calcium sensitive dye, diluted in FLIPR buffer (1× Hank's buffered saline containing 20 mM HEPES, 0.1% BSA, 2.5 mM probenecid (Sigma) and 1.6 mM TR40). All reagents are from Invitrogen unless otherwise noted. Peptide stocks are resuspended in DMSO at a stock concentration of 2 mM and diluted in FLIPR buffer on the day of the experiment to a 4 μM working stock solution.
(§4) After a 90 minute incubation at room-temperature, cell plates are loaded onto a FLIPR (Molecular Devices) to monitor cellular fluorescence (excitation=488 nm; emission=540 nm) before and after compound/peptide addition. Eight to twelve point dose responses are tested on NMUR-expressing cell lines using FLIPR with 1 μM peptide as the highest dose. The response after peptide addition is taken as the maximum fluorescence units minus the fluorescence immediately prior to stimulation for each well. EC50 values are calculated using GraphPad Prism (San Diego, Calif.) software.
(§5) Percent activity refers to the maximum response at 1 μM compared to the human NMU-25 response at the same concentration.

human NMUR1 = target: T2, human NMUR1 (Homo sapiens, UniProt Q9HB89); experiment: FLIPR calcium mobilization assay, human NMUR1-expressing cell line; format: cell-based
T2 construct: expressed in transfected cells; host or cells: FLP-In CHO cells and HEK-293 FLP-In cells (pcDNA5)
T2 sequence (Q9HB89 1-426): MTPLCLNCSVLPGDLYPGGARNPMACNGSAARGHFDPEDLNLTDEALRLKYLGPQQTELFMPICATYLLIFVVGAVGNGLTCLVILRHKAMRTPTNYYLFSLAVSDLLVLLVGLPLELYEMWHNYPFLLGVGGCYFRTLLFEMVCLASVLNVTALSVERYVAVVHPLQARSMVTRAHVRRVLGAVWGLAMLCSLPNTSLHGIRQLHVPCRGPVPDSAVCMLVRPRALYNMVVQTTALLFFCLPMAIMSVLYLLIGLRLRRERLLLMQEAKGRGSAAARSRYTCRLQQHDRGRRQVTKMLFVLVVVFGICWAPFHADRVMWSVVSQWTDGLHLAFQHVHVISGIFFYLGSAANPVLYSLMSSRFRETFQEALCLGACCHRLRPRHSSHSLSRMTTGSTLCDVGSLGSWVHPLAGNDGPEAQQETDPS
Excerpt: as §1, §2, §3, §4, §5

[1] = Pharmacokinetic analysis using the FLIPR-based bioassay of plasma; format: in vivo; conditions: mice, 10 mg/kg subcutaneously, FIG. 5
Description: Peptide exposure levels in dosed animals were measured using the bioassay. Animals were dosed subcutaneously and plasma was collected at various time points post-dose. The bioassay is a FLIPR-based assay that measures the concentration of peptide in plasma from animals dosed with hNMU-25 or NMS. The assay is run essentially as described above (Example 2) with the following modifications: sample preparation prior to the assay is performed on ice to minimize degradation of plasma samples. The assay was run with 4% plasma as the final concentration. A three-point titration was done with the dosed plasma and tested on human NMUR1-expressing cell lines using FLIPR. The response after sample addition was taken as the maximum fluorescence units minus the fluorescence immediately prior to stimulation for each well. In addition to a three-point titration of dosed plasma samples, a 16-point titration of the peptide (hNMU-25 or NMS) was run in 4% plasma (naive plasma) to serve as the standard. The concentration of the peptide in plasma was calculated based on extrapolations from the appropriate standard using the GraphPad Prism software.
In the experiment, the animals were dosed subcutaneously with 10 mg/kg of human NMU-25 or human NMS and plasma was collected at various time points post dose and measured in the Bioassay. […]

[2] = system: male diet-induced obese mice; experiment: Acute feeding study with NMU and NMS; format: in vivo
Description: Ad libitum fed male diet-induced obese mice obtained from Taconic Farms were weighed and dosed either i.p. or s.c. with NMS or NMU at about 30 minutes prior to the onset of the dark phase of the light cycle and provided with a pre-weighed aliquot of high fat diet (D12492: 60% kcal from fat: Research Diets, Inc.), which was then weighed two and 18 hours after the onset of the initial dark phase. Mice were weighed at the 18 hour (overnight) time point.

dog NMUR1-ATG = experiment: FLIPR calcium mobilization assay, dog NMUR1-ATG cell line; format: cell-based
Excerpt: as §1, §2, §3, §4, §5

[3] = system: diet-induced obese animals; experiment: Chronic administration by subcutaneous micro-osmotic pumps; format: in vivo, mice; conditions: two weeks
Description: Chronic administration of peptide was evaluated using micro-osmotic pumps designed to deliver 0.5 μl/h (Alza Co.). Pumps were filled with peptide or vehicle and implanted subcutaneously in the intrascapular space in diet-induced obese animals. Mice were fed ad libitum and food intake and body weight were measured daily for two weeks. […] Cumulative body weight change (FIG. 2A) and cumulative food intake (FIG. 2B) with two-week treatment of NMU and NMS are shown.

T1 sequence (Q9GZQ4 whole entry): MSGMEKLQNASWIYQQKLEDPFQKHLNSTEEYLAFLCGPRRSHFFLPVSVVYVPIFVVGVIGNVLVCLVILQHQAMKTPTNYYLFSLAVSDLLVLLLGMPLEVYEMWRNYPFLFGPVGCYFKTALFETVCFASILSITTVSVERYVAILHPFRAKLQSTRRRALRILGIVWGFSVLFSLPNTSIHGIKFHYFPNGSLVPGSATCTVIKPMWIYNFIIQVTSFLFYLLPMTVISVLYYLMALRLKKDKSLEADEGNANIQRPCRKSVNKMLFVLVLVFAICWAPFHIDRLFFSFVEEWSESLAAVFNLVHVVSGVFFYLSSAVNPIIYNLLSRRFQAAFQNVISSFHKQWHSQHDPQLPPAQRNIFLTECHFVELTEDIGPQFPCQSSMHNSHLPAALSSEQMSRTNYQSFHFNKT

## H-ILQRGSGTAAVDFTKKDHTATWGRPFFLFRPRN-NH2 [NMS, reference compound]
Human NMUR2; human NMUR2, FLIPR
  EC50: 12.6 nM
Human NMUR2; human NMUR2, maximum response at 1 μM compared to the human NMU-25 response at the same concentration
  % Activity: 107%
Human NMUR1; human NMUR1, FLIPR
  EC50: 6.7 nM
Human NMUR1; human NMUR1, maximum response at 1 μM compared to the human NMU-25 response at the same concentration
  % Activity: 97%
[1]
  metabolic stability in vivo compared to NMU: greater metabolic stability
[2]; acute peripheral administration
  anorectic effects compared with NMU: appeared to be greater than the anorectic effects observed with NMU
[2]; acute peripheral administration (i.p. or s.c.), FIG. 1A
  food intake: significantly reduced
[2]; acute peripheral administration, 18 hour (overnight), FIG. 1B
  body weight: significantly reduced
Dog NMUR1-ATG; FLIPR
  EC50: 4.4 nM
Dog NMUR1-ATG; maximum response at 1 μM compared to the human NMU-25 response at the same concentration
  % Activity: 100%
[3]
  effect on food intake and body weight compared with NMU: appeared to be greater than that observed for NMU
[3]; cumulative change, FIG. 2A
  body weight: significantly reduced
[3]; cumulative, FIG. 2B
  food intake: significantly reduced
